# Measured values: article PMC11149917, “Translational and Therapeutic Evaluation of RAS-GTP Inhibition by RMC-6236 in RAS-Driven Cancers” (Cancer Discovery, 2024)
# What was measured:
# [1] = tested on: KP-4 (KRAS^G12D/WT, PDAC) xenograft; assay: Subcutaneous xenograft antitumor activity; assay type: in vivo, mouse; conditions: KP-4 (25 mg/kg)
# Experimental: (§1) To generate subcutaneous CDX, each mouse was inoculated at the right flank with tumor cells (2 × 10^6 − 1 × 10^7) in 100 to 200 µL of media/PBS Supplemented with Matrigel. Treatments were initiated when average tumor volume reached 130 to 200 mm^3 for tumor growth evaluation and 350 to 650 mm^3 for single-dose pharmacokinetic/pharmacodynamic (PK/PD). Tumor diameter was measured in two dimensions using a digital caliper, and the tumor volume in mm^3 was calculated using the formula: Volume = ((width)^2 × length)/2. Mice in the study were weighed and tumors were measured twice weekly.
# (§2) Tumor-bearing animals were randomized and assigned into groups (n = 1–10/group). The vehicle at 10 mL/kg or RMC-6236 at indicated doses was administered via oral gavage daily, and animals were treated for 28 days, or up to 90 days if PFS was being assessed. […] For single-dose PKPD study, mice were randomized and assigned into groups (n = 3/dose/time point). A single dose of RMC-6236 was administered orally at either 3, 10, or 25 mg/kg. Blood and tissues, including the tumor, brain, colon, ear skin, and muscle, were harvested at indicated time points. Whole blood was collected in K2EDTA Microtainer tubes, incubated for 5 minutes, and snap-frozen in liquid nitrogen. The tissue was either fixed in 10% formalin or snap-frozen in liquid nitrogen for further analysis.
# (§3) In tumor volume plots, the average tumor volume of each group was plotted over the course after implantation (except for PDX models, where the x-axis started on the first day of treatment). Control and RMC-6236 groups were compared by two-way repeated-measures ANOVA on the last measurement day of the control group. Percentage change in body weight for each animal on a given day was determined as [(body weight on test article administration end date/body weight on test article administration start date) −1] × 100. The percentage mean tumor volume change from baseline was graphed in the waterfall plots. The mRECIST score was determined based on % mean tumor volume change, mCR is more than 80% regression, mPR is between 30% and 80% regression, mSD is between 30% growth and 30% regression, mPD is more than 30% growth. Progression is defined as tumor volume doubling from baseline and represented with Kaplan–Meier plots. Log-rank test was used to compare vehicle control with treatment groups. Cox Proportional Hazards models were used to estimate hazard ratios between vehicle control and treatment groups. Tumor relapse was defined here as models that were considered mPR or mCR at the response calling date and then rebounded from mean tumor volume regressions to either stable disease or progression when dosed long-term (more than 60 days).
# [2] = tested on: NCI-H358 (KRAS^G12C/WT, NSCLC) xenograft; assay: Subcutaneous xenograft antitumor activity; assay type: in vivo, mouse; conditions: NCI-H358 (25 mg/kg)
# Experimental: as §1, §2, §3
# [3] = tested on: HPAC (KRAS^G12D/WT, PDAC) xenograft; assay: Subcutaneous xenograft antitumor activity; assay type: in vivo, mouse; conditions: HPAC (25 mg/kg)
# Experimental: as §1, §2, §3
# [4] = tested on: Capan-2 (KRAS^G12V/WT, PDAC) xenograft; assay: Subcutaneous xenograft antitumor activity; assay type: in vivo, mouse; conditions: for Tumor Volume: Capan-2 Tumor Volume Data
# Experimental: as §1, §2, §3
# [5] = tested on: NCI-H2122 (KRAS^G12C/G12C, NSCLC) xenograft; assay: Subcutaneous xenograft antitumor activity; assay type: in vivo, mouse; conditions: NCI-H2122 (25 mg/kg)
# Experimental: as §1, §2, §3
# [6] = tested on: NCI-H441 (KRAS^G12V/WT, NSCLC) xenograft; assay: Subcutaneous xenograft antitumor activity; assay type: in vivo, mouse; conditions: for Tumor Volume: NCI-H441 Tumor Volume Data, dose every 24 h
# Experimental: as §1, §2, §3
# [7] = Mouse clinical trial (MCT), body weight change; assay type: in vivo; conditions: 25 mg/kg daily
smiles,measurement,setting,value
CCn1c(-c2cc(N3CCN(C)CC3)cnc2[C@H](C)OC)c2c3cc(ccc31)-c1csc(n1)C[C@H](NC(=O)[C@H]1C[C@@H]1C)C(=O)N1CCC[C@H](N1)C(=O)OCC(C)(C)C2 [RMC-6236],Anti-Tumor Activity (% regression),[1]; d14,48.2%
same,"Anti-Tumor Activity, %TGI",[1]; d28,89.2 % TGI
same,Anti-Tumor Activity (% regression),[2],92.97%
same,Anti-Tumor Activity (% regression),[3],93%
same,Anti-Tumor Activity (% regression),[4]; Capan-2 (10 mg/kg),13%
same,Anti-Tumor Activity (% regression),[4]; Capan-2 (25 mg/kg),53.0%
same,mean tumor regression,"[4]; Capan-2, 10 mg/kg daily, 4 weeks",13%
same,Tumor Volume,"[4]; 10mg/kg_Capan2, dose every 24 h, 0 h (baseline)",166.375 mm^3
same,Tumor Volume,"[4]; 10mg/kg_Capan2, dose every 24 h, 48 h",174.875 mm^3
same,Tumor Volume,"[4]; 10mg/kg_Capan2, dose every 24 h, 144 h",156.5 mm^3
same,Tumor Volume,"[4]; 10mg/kg_Capan2, dose every 24 h, 384 h",177.25 mm^3
same,Tumor Volume,"[4]; 10mg/kg_Capan2, dose every 24 h, 480 h",157.5 mm^3
same,Tumor Volume,"[4]; 10mg/kg_Capan2, dose every 24 h, 552 h",152.125 mm^3
same,Tumor Volume,"[4]; 25mg/kg_Capan2, dose every 24 h, 0 h (baseline)",166.375 mm^3
same,Tumor Volume,"[4]; 25mg/kg_Capan2, dose every 24 h, 48 h",154.875 mm^3
same,Tumor Volume,"[4]; 25mg/kg_Capan2, dose every 24 h, 144 h",132.75 mm^3
same,Tumor Volume,"[4]; 25mg/kg_Capan2, dose every 24 h, 384 h",105 mm^3
same,Tumor Volume,"[4]; 25mg/kg_Capan2, dose every 24 h, 480 h",90.25 mm^3
same,Tumor Volume,"[4]; 25mg/kg_Capan2, dose every 24 h, 552 h",86.875 mm^3
same,"Anti-Tumor Activity, %TGI",[5],99.64 %TGI
same,Anti-Tumor Activity (% regression),[6]; NCI-H441 (25 mg/kg),88.0%
same,mean tumor regression,"[6]; NCI-H441, 10 mg/kg daily, 4 weeks",29%
same,Tumor Volume,"[6]; 1mg/kg, 0 h (baseline)",155.297 mm^3
same,Tumor Volume,"[6]; 1mg/kg, 72 h",211.748 mm^3
same,Tumor Volume,"[6]; 1mg/kg, 240 h",488.795 mm^3
same,Tumor Volume,"[6]; 1mg/kg, 336 h",652.416 mm^3
same,Tumor Volume,"[6]; 1mg/kg, 408 h",795.041 mm^3
same,Tumor Volume,"[6]; 1mg/kg, 504 h",1190.95 mm^3
same,Tumor Volume,"[6]; 1mg/kg, 576 h",1534.52 mm^3
same,Tumor Volume,"[6]; 1mg/kg, […]",331.176 mm^3
same,Tumor Volume,"[6]; 5mg/kg, 0 h (baseline)",155.278 mm^3
same,Tumor Volume,"[6]; 5mg/kg, 72 h",132.554 mm^3
same,Tumor Volume,"[6]; 5mg/kg, 240 h",165.633 mm^3
same,Tumor Volume,"[6]; 5mg/kg, 336 h",208.828 mm^3
same,Tumor Volume,"[6]; 5mg/kg, 408 h",274.14 mm^3
same,Tumor Volume,"[6]; 5mg/kg, 504 h",284.303 mm^3
same,Tumor Volume,"[6]; 5mg/kg, 576 h",324.789 mm^3
same,Tumor Volume,"[6]; 5mg/kg, 672 h",374.96 mm^3
same,Tumor Volume,"[6]; 5mg/kg, […]",115.114 mm^3
same,Tumor Volume,"[6]; 10mg/kg, 0 h (baseline)",155.355 mm^3
same,Tumor Volume,"[6]; 10mg/kg, 72 h",120.95 mm^3
same,Tumor Volume,"[6]; 10mg/kg, 240 h",80.5583 mm^3
same,Tumor Volume,"[6]; 10mg/kg, 336 h",79.7939 mm^3
same,Tumor Volume,"[6]; 10mg/kg, 408 h",102.218 mm^3
same,Tumor Volume,"[6]; 10mg/kg, 504 h",74.6022 mm^3
same,Tumor Volume,"[6]; 10mg/kg, 576 h",87.8761 mm^3
same,Tumor Volume,"[6]; 10mg/kg, 672 h",105.875 mm^3
same,Tumor Volume,"[6]; 10mg/kg, […]",91.6508 mm^3
same,Tumor Volume,"[6]; 25mg/kg, 0 h (baseline)",155.304 mm^3
same,Tumor Volume,"[6]; 25mg/kg, 72 h",113.104 mm^3
same,Tumor Volume,"[6]; 25mg/kg, 240 h",58.639 mm^3
same,Tumor Volume,"[6]; 25mg/kg, 336 h",46.9253 mm^3
same,Tumor Volume,"[6]; 25mg/kg, 408 h",36.776 mm^3
same,Tumor Volume,"[6]; 25mg/kg, 504 h",29.9204 mm^3
same,Tumor Volume,"[6]; 25mg/kg, 576 h",27.7701 mm^3
same,Tumor Volume,"[6]; 25mg/kg, 672 h",19.397 mm^3
same,Tumor Volume,"[6]; 25mg/kg, […]",78.2002 mm^3
same,RMC-6236 % Mean Body Weight Change,"[7]; CRC007, CRC PDX, day 28",-5.78%
same,RMC-6236 % Mean Body Weight Change,"[7]; CRC022, CRC PDX, day 28",-8.40%
same,RMC-6236 % Mean Body Weight Change,"[7]; CRC043, CRC PDX, day 27",-2.90%
same,RMC-6236 % Mean Body Weight Change,"[7]; CRC078, CRC PDX, day 27",-13.26%
same,RMC-6236 % Mean Body Weight Change,"[7]; CTG-0796, CRC PDX, day 28",7.32%
